From PubChem BioAssay (NCI)
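GI50 = concentration required for 50% inhibition of growth. TGI denotes the concentration required for complete inhibition of growth.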

Key:
Test in all cases: NCI-60 cell line screen, 384-well format
786-0 renal = test system: 786-0 renal
A498 renal = test system: A498 renal
A549 NSCLC = test system: A549 NSCLC
ACHN renal = test system: ACHN renal
BT-549 breast = test system: BT-549 breast
CAKI-1 renal = test system: CAKI-1 renal
CCRF-CEM leukemia = test system: CCRF-CEM leukemia
COLO 205 colon = test system: COLO 205 colon
DU-145 prostate = test system: DU-145 prostate
EKVX NSCLC = test system: EKVX NSCLC
HCC-2998 colon = test system: HCC-2998 colon
HCT-15 colon = test system: HCT-15 colon
HL-60(TB) leukemia = test system: HL-60(TB) leukemia
HOP-62 NSCLC = test system: HOP-62 NSCLC
HOP-92 NSCLC = test system: HOP-92 NSCLC
HS 578T breast = test system: HS 578T breast
HT29 colon = test system: HT29 colon
IGROV1 ovarian = test system: IGROV1 ovarian
K-562 leukemia = test system: K-562 leukemia
KM12 colon = test system: KM12 colon
LOX IMVI melanoma = test system: LOX IMVI melanoma
M14 melanoma = test system: M14 melanoma
MALME-3M melanoma = test system: MALME-3M melanoma
MCF7 breast = test system: MCF7 breast
MDA-MB-231 breast = test system: MDA-MB-231 breast
MDA-MB-435 melanoma = test system: MDA-MB-435 melanoma
MDA-MB-468 breast = test system: MDA-MB-468 breast
MOLT-4 leukemia = test system: MOLT-4 leukemia
NCI-H226 lung = test system: NCI-H226 lung
NCI-H23 lung = test system: NCI-H23 lung
NCI-H322M lung = test system: NCI-H322M lung
NCI-H460 NSCLC = test system: NCI-H460 NSCLC
NCI-H522 lung = test system: NCI-H522 lung
NCI/ADR-RES ovarian = test system: NCI/ADR-RES ovarian
OVCAR-3 ovarian = test system: OVCAR-3 ovarian
OVCAR-4 ovarian = test system: OVCAR-4 ovarian
OVCAR-5 ovarian = test system: OVCAR-5 ovarian
OVCAR-8 ovarian = test system: OVCAR-8 ovarian
PC-3 prostate = test system: PC-3 prostate
RPMI-8226 leukemia = test system: RPMI-8226 leukemia
RXF 393 renal = test system: RXF 393 renal
SF-268 CNS = test system: SF-268 CNS
SF-295 CNS = test system: SF-295 CNS
SF-539 CNS = test system: SF-539 CNS
SK-MEL-28 melanoma = test system: SK-MEL-28 melanoma
SK-MEL-5 melanoma = test system: SK-MEL-5 melanoma
SK-OV-3 ovarian = test system: SK-OV-3 ovarian
SN12C renal = test system: SN12C renal
SNB-19 CNS = test system: SNB-19 CNS
SNB-75 CNS = test system: SNB-75 CNS
SR leukemia = test system: SR leukemia
SW-620 colon = test system: SW-620 colon
T-47D breast = test system: T-47D breast
TK-10 renal = test system: TK-10 renal
U251 glioblastoma = test system: U251 glioblastoma
UACC-257 melanoma = test system: UACC-257 melanoma
UACC-62 melanoma = test system: UACC-62 melanoma
UO-31 renal = test system: UO-31 renal

`NC(N)=Nc1ccc(-n2nc(C(F)(F)F)cc2-c2ccc3c(ccc4ccccc43)c2)cc1` showed a GI50 ([…]-0 renal) of 1.62 µM, a TGI (786-0 renal) of 2.98 µM and a GI50 (A498 renal) of 1.55 µM. For the same compound, the TGI (A498 renal) was 2.9 µM, the GI50 (A549 NSCLC) was 1.74 µM and the TGI (A549 NSCLC) was 3.13 µM. For the same compound, the GI50 (ACHN renal) was 1.84 µM, the TGI (ACHN renal) was 3.25 µM and the GI50 (BT-549 breast) was 1.75 µM. For the same compound, the TGI (BT-549 breast) was 3.14 µM, the GI50 (CAKI-1 renal) was 1.74 µM and the TGI (CAKI-1 renal) was 3.14 µM. The GI50 (CCRF-CEM leukemia) was 1.11 µM, the TGI (CCRF-CEM leukemia) was 2.31 µM and the GI50 (COLO 205 colon) was 1.3 µM. The TGI (COLO 205 colon) was 2.58 µM, the GI50 (DU-145 prostate) was 1.85 µM and the TGI (DU-145 prostate) was 3.27 µM. It also gave a GI50 (EKVX NSCLC) of 1.72 µM, a TGI (EKVX NSCLC) of 3.1 µM and a GI50 (HCC-2998 colon) of 0.736 µM. The TGI (HCC-2998 colon) was 2.03 µM, the GI50 (HCT-15 colon) was 1.53 µM and the TGI (HCT-15 colon) was 2.89 µM. For the same compound, the GI50 (HL-60(TB) leukemia) was 0.838 µM, the TGI (HL-60(TB) leukemia) was 2.07 µM and the GI50 (HOP-62 NSCLC) was 1.77 µM. It also gave a TGI (HOP-62 NSCLC) of 3.17 µM, a GI50 (HOP-92 NSCLC) of 1.39 µM and a TGI (HOP-92 NSCLC) of 2.7 µM. The GI50 (HS 578T breast) was 1.77 µM, the TGI (HS 578T breast) was 3.16 µM and the GI50 (HT29 colon) was 1.74 µM. The TGI (HT29 colon) was 3.14 µM, the GI50 (IGROV1 ovarian) was 1.82 µM and the TGI (IGROV1 ovarian) was 3.23 µM. For the same compound, the GI50 (K-562 leukemia) was 1.57 µM, the TGI (K-562 leukemia) was 2.92 µM and the GI50 (KM12 colon) was 1.47 µM. The TGI (KM12 colon) was 2.8 µM, the GI50 (LOX IMVI melanoma) was 1.53 µM and the TGI (LOX IMVI melanoma) was 2.87 µM. It also gave a GI50 (M14 melanoma) of 1.74 µM, a TGI (M14 melanoma) of 3.14 µM and a GI50 (MALME-3M melanoma) of 1.65 µM. For the same compound, the TGI (MALME-3M melanoma) was 3.02 µM, the GI50 (MCF7 breast) was 1.25 µM and the TGI (MCF7 breast) was 2.52 µM. The GI50 (MDA-MB-231 breast) was 1.57 µM, the TGI (MDA-MB-231 breast) was 2.93 µM and the GI50 (MDA-MB-435 melanoma) was 1.85 µM. For the same compound, the TGI (MDA-MB-435 melanoma) was 3.26 µM, the GI50 (MDA-MB-468 breast) was 2.02 µM and the TGI (MDA-MB-468 breast) was 3.45 µM. The GI50 (MOLT-4 leukemia) was 1.44 µM, the TGI (MOLT-4 leukemia) was 2.75 µM and the GI50 (NCI-H226 lung) was 1.64 µM. The TGI (NCI-H226 lung) was 3.01 µM, the GI50 (NCI-H23 lung) was 1.63 µM and the TGI (NCI-H23 lung) was 2.99 µM. For the same compound, the GI50 (NCI-H322M lung) was 1.65 µM, the TGI (NCI-H322M lung) was 3.02 µM and the GI50 (NCI-H460 NSCLC) was 1.69 µM. For the same compound, the TGI (NCI-H460 NSCLC) was 3.07 µM, the GI50 (NCI-H522 lung) was 1.78 µM and the TGI (NCI-H522 lung) was 3.18 µM. The GI50 (NCI/ADR-RES ovarian) was 2.38 µM, the TGI (NCI/ADR-RES ovarian) was 4.83 µM and the GI50 (OVCAR-3 ovarian) was 1.84 µM. It also gave a TGI (OVCAR-3 ovarian) of 3.26 µM, a GI50 (OVCAR-4 ovarian) of 1.61 µM and a TGI (OVCAR-4 ovarian) of 2.97 µM. The GI50 (OVCAR-5 ovarian) was 1.88 µM, the TGI (OVCAR-5 ovarian) was 3.29 µM and the GI50 (OVCAR-8 ovarian) was 1.83 µM. For the same compound, the TGI (OVCAR-8 ovarian) was 3.23 µM, the GI50 (PC-3 prostate) was 1.72 µM and the TGI (PC-3 prostate) was 3.11 µM. For the same compound, the GI50 (RPMI-8226 leukemia) was 1.31 µM, the TGI (RPMI-8226 leukemia) was 2.59 µM and the GI50 (RXF 393 renal) was 1.59 µM. For the same compound, the TGI (RXF 393 renal) was 2.93 µM, the GI50 (SF-268 CNS) was 1.83 µM and the TGI (SF-268 CNS) was 3.24 µM. The GI50 (SF-295 CNS) was 1.84 µM, the TGI (SF-295 CNS) was 3.25 µM and the GI50 (SF-539 CNS) was 1.86 µM. It also gave a TGI (SF-539 CNS) of 3.27 µM, a GI50 (SK-MEL-28 melanoma) of 1.78 µM and a TGI (SK-MEL-28 melanoma) of 3.17 µM. The GI50 (SK-MEL-5 melanoma) was 1.83 µM, the TGI (SK-MEL-5 melanoma) was 3.22 µM and the GI50 (SK-OV-3 ovarian) was 1.62 µM. The TGI (SK-OV-3 ovarian) was 2.98 µM, the GI50 (SN12C renal) was 1.81 µM and the TGI (SN12C renal) was 3.22 µM. The GI50 (SNB-19 CNS) was 1.77 µM, the TGI (SNB-19 CNS) was 3.17 µM and the GI50 (SNB-75 CNS) was 1.76 µM. The TGI (SNB-75 CNS) was 3.15 µM, the GI50 (SR leukemia) was 0.765 µM and the TGI (SR leukemia) was 2.02 µM. It also gave a GI50 (SW-620 colon) of 1.82 µM, a TGI (SW-620 colon) of 3.23 µM and a GI50 (T-47D breast) of 1.76 µM. It also gave a TGI (T-47D breast) of 3.15 µM, a GI50 (TK-10 renal) of 1.81 µM and a TGI (TK-10 renal) of 3.21 µM. It also gave a GI50 (U251 glioblastoma) of 1.84 µM, a TGI (U251 glioblastoma) of 3.27 µM and a GI50 (UACC-257 melanoma) of 1.95 µM. The TGI (UACC-257 melanoma) was 3.37 µM, the GI50 (UACC-62 melanoma) was 1.74 µM and the TGI (UACC-62 melanoma) was 3.13 µM. It also gave a GI50 (UO-31 renal) of 1.78 µM and a TGI (UO-31 renal) of 3.2 µM.
